Data: the supplement of paper PMC11208160

test: recombinant UMI read abundance after kanamycin selection (control-corrected) (log10(CPM+1)); higher = more efficient recombination; extreme values may be limits of the assay; sequences stand for … in AGTGCAGAGAAAATCGGCCAGTTTTCTCTGCCTGCAGTCCGCATGCCGTGGGACCCCTTGGGTTCTAACCTGTTGCCTAGATTTATGCAGCGGACTGCCTTTCTCCCAAAGTGATAAACCGG…AGGTTGGTTTCACT; site = the 11-nt donor
How it was run: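 After plating on IPTG (0.07 mM) plus kanamycin, or unselected, in two replicates, recombinant UMIs were PCR-amplified across the donor–target junction and sequenced. The cells were Escherichia coli co-electroporated with a UMI-tagged donor and donor-binding-loop pair library and a target plasmid with a fixed target and T7-inducible IS621 bridge recombinase. Values are log10(CPM+1), with CPM averaged over replicates and scaled by control-derived factors.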

Row | Sequence | recombinant UMI read abundance (log10)
1 | CTGCATGCATGGACCGGTTTTCCCGGTAATCCGTATTTGGT (site GTGCATGCTAC) | 0.0408
2 | CTGCATGCATGGACCGGTTTTCCCGGTAATCCGTATTTGGT (site TTGCATGCTAC) | 0.0633
3 | CTGCCAACATGGACCGGTTTTCCCGGTAATCCGTATTTGAA (site CTGCCAACTTT) | 0.912
4 | CTGCCGGCATGGACCGGTTTTCCCGGTAATCCGTATTTGCA (site CTGCCGGCTTG) | 2.01
5 | CTGCCTACATGGACCGGTTTTCCCGGTAATCCGTATTTGAG (site CTACCTACTCT) | 1.04
6 | CTGCCTACATGGACCGGTTTTCCCGGTAATCCGTATTTGAG (site CTCCCTACTCT) | 0.00401
7 | CTGCCTACATGGACCGGTTTTCCCGGTAATCCGTATTTGAG (site CTGCCTACTCT) | 1.03
8 | CTGCCTACATGGACCGGTTTTCCCGGTAATCCGTATTTGAG (site CTTCCTACTCT) | 0.12
9 | CTGCGAACATGGACCGGTTTTCCCGGTAATCCGTATTTGCA (site CTGCGAACTTG) | 1.38
10 | CTGCGGTCATGGACCGGTTTTCCCGGTAATCCGTATTTGTC (site CTGCGGTCTGA) | 2.1
11 | CTGCGTGCATGGACCGGTTTTCCCGGTAATCCGTATTTGGT (site CTGCGTGCTAC) | 1.37
12 | CTGCTACCATGGACCGGTTTTCCCGGTAATCCGTATTTGCG (site CTGCTACCTAG) | 0
13 | CTGCTACCATGGACCGGTTTTCCCGGTAATCCGTATTTGCG (site CTGCTACCTCG) | 0.309
14 | CTGCTACCATGGACCGGTTTTCCCGGTAATCCGTATTTGCG (site CTGCTACCTGG) | 0
15 | CTGCTACCATGGACCGGTTTTCCCGGTAATCCGTATTTGCG (site CTGCTACCTTG) | 0
16 | CTGCTACCATGGACCGGTTTTCCCGGTAATCCGTATTTGTT (site CTGCTACCTAA) | 0.0134

Row | Sequence | recombinant UMI read abundance (log10)
17 | CTGCTACCATGGACCGGTTTTCCCGGTAATCCGTATTTGTT (site CTGCTACCTAC) | 0.0167
18 | CTGCTACCATGGACCGGTTTTCCCGGTAATCCGTATTTGTT (site CTGCTACCTAG) | 0
19 | CTGCTACCATGGACCGGTTTTCCCGGTAATCCGTATTTGTT (site CTGCTACCTAT) | 0.011
20 | CTGCTAGCATGGACCGGTTTTCCCGGTAATCCGTATTTGCT (site CTGCTAACTAG) | 0
21 | CTGCTAGCATGGACCGGTTTTCCCGGTAATCCGTATTTGCT (site CTGCTACCTAG) | 0
22 | CTGCTAGCATGGACCGGTTTTCCCGGTAATCCGTATTTGCT (site CTGCTAGCTAG) | 0
23 | CTGCTAGCATGGACCGGTTTTCCCGGTAATCCGTATTTGCT (site CTGCTATCTAG) | 0
24 | CTGCTATCATGGACCGGTTTTCCCGGTAATCCGTATTTGCT (site CTGCTAACTAG) | 0.708
25 | CTGCTATCATGGACCGGTTTTCCCGGTAATCCGTATTTGCT (site CTGCTACCTAG) | 0
26 | CTGCTATCATGGACCGGTTTTCCCGGTAATCCGTATTTGCT (site CTGCTAGCTAG) | 0.0179
27 | CTGCTATCATGGACCGGTTTTCCCGGTAATCCGTATTTGCT (site CTGCTATCTAG) | 2.33
28 | CTGCTGCCATGGACCGGTTTTCCCGGTAATCCGTATTTGCT (site CTGCTACCTAG) | 0.00624
29 | CTGCTGCCATGGACCGGTTTTCCCGGTAATCCGTATTTGCT (site CTGCTCCCTAG) | 0.506
30 | CTGCTGCCATGGACCGGTTTTCCCGGTAATCCGTATTTGCT (site CTGCTGCCTAG) | 1.22
31 | CTGCTGCCATGGACCGGTTTTCCCGGTAATCCGTATTTGCT (site CTGCTTCCTAG) | 0
32 | CTGCTTCCATGGACCGGTTTTCCCGGTAATCCGTATTTGCT (site CTGCTACCTAG) | 0
